Experimental findings from patent publication US8080657B2, “Compounds of reverse turn mimetics and the use thereof” (Choongwae Pharma Corporation, priority 2008, dated 2011) are described below.

Molecules are shown by their SMILES. Read-outs that look alike come from different tables or passages of the source.

Assay [1] has as its target T1, cDNA-expressed human hepatic CYP3A4 (Homo sapiens, UniProt P08684).
T1 construct: purchased BD Gentest 456202
Nature of the assay: P450 CYP3A4 inhibitory activity screening (BFC substrate, fluorescence). In kind it is biochemical. As to the method: P450 CYP3A4 Inhibitory Activity Screening
Assay was conducted in a 200 μL volume in 96-well microtiter plates using cDNA-expressed human hepatic CYP3A4 (supersome, BD Gentest™ #456202). 7-Benzyloxy-4-trifluoromethyl-coumarin (BFC) was used as a substrate for CYP3A4. Test articles and substrate BFC were dissolved in 100% acetonitrile. The final volume of acetonitrile in the incubation mixture was less than 1% (volume/volume). Potassium phosphate buffer (pH 7.4, final concentration 0.1 M), MgCl2 (final concentration 8.3 mM), EDTA (final concentration 1.67 mM), a test article stock solution, a CYP3A4 supersome and NADPH (final concentration 0.25 mM) were added to each well. The reaction was initiated by the addition of substrate (BFC, final concentration 30 µM) after a 10 min pre-incubation at 37° C. After 10 min incubation at 37° C., the reaction was terminated by the addition of 75 μL of acetonitrile:0.5 M Tris-base=4:1 (volume/volume). Thereafter, Fluorescent signal was measured using a fluorometer. BFC metabolite, 7-hydroxy-4-trifluoromethyl-coumarin, was measured using an excitation wavelength of 409 nm and an emission wavelength of 530 nm.

The next assay relates to Wnt signaling. Nature of the assay: TopFlash reporter gene bioassay in SW480 cells. In kind it is cell-based. The note with it: read-out: RGA, IC50 (μM) TopF.
Setting [2] is: P450 CYP3A4 inhibitory activity screening, fluorescent assay, read-out: CYP3A4 inhibition, IC50 (μM) fluorescent assay.
[3] abbreviates: human CYP3A4 supersome, substrate BFC, 10 min incubation at 37° C., read-out: IC50 values of Compounds against CYP3A4 activity.
[4] abbreviates: Homo sapiens, SW480, TopFlash reporter gene assay, inhibition of Wnt signaling.
[5] abbreviates: TopFlash reporter gene assay, inhibition of Wnt signaling.

T1 sequence (P08684 whole entry): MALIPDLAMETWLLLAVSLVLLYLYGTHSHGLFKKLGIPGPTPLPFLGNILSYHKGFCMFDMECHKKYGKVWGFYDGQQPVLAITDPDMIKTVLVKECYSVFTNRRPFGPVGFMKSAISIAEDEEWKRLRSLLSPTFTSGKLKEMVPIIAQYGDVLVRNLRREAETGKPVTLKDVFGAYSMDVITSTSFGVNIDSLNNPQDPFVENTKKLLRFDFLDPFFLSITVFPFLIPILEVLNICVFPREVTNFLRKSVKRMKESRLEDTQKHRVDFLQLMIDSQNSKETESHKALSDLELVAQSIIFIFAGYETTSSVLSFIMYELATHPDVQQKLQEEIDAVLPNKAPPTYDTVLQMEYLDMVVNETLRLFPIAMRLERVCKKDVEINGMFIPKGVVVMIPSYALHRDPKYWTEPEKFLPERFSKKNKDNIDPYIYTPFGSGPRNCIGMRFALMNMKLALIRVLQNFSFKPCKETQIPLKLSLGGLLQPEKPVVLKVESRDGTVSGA

Broadly, the IC50 is the concentration that gives 50% inhibition. For `C=CCN1CC(=O)N2[C@@H](Cc3ccc(O)cc3)C(=O)N(Cc3cccc(C(N)=O)c3[N+](=O)[O-])C[C@@H]2N1C(=O)NCc1ccccc1` [compound 43], the IC50 in assay [1] (setting [2]) is 44.4 µM.
On the same count and under the same terms, the result for `C=CCN1CC(=O)N2[C@@H](Cc3ccc(O)cc3)C(=O)N(Cc3cccc(C(=O)N(C)C)c3)C[C@@H]2N1C(=O)NCc1ccccc1` [compound 22] reads 11.6 µM; that for `C=CCN1CC(=O)N2[C@@H](Cc3ccc(O)cc3)C(=O)N(Cc3cccc(C(=O)O)c3)C[C@@H]2N1C(=O)NCc1ccc(Cl)cc1Cl` [compound 50], more than 50 µM.
For the compound `C=CCN1CC(=O)N2[C@@H](Cc3ccc(O)cc3)C(=O)N(Cc3cccc4c3nc(C(F)(F)F)n4C)C[C@@H]2N1C(=O)NCc1ccccc1` [compound 45], in assay [1] (setting [2]), the IC50 was more than 10 µM.
Same read-out and setting: to `CN1CC(=O)N2[C@@H](Cc3ccc(O)cc3)C(=O)N(Cc3cccc4c3ncn4C)C[C@@H]2N1C(=O)NCc1ccccc1` [compound 40] belongs 39.1 µM.
As to `C=CCN1CC(=O)N2[C@@H](Cc3ccc(O)cc3)C(=O)N(Cc3cccc(N(C)C(=O)OC)c3)C[C@@H]2N1C(=O)NCc1ccccc1` [D], the IC50 in assay [1] (setting [3]) came out at 10.2 µM.
The same measure, in the same setting: to `C=CCN1CC(=O)N2[C@@H](Cc3ccc(O)cc3)C(=O)N(Cc3cccc(NC(=O)OC)c3)C[C@@H]2N1C(=O)NCc1ccccc1` (single isomer, unassigned) [C] belongs 24.2 µM.
For `C=CCN1CC(=O)N2[C@@H](Cc3ccc(O)cc3)C(=O)N(Cc3cccc(C(=O)N4CCCC4)c3)C[C@@H]2N1C(=O)NCc1ccccc1` [compound 1], in assay [1] (setting [2]), the IC50 was 5 µM.
The same measure, in the same setting: the result for `C=CCN1CC(=O)N2[C@@H](Cc3ccc(O)cc3)C(=O)N(Cc3cccc(C(N)=O)n3)C[C@@H]2N1C(=O)NCc1ccccc1` [compound 52] reads more than 50 µM; that for `C=CCN1CC(=O)N2[C@@H](Cc3ccc(O)cc3)C(=O)N(Cc3cccnc3Br)C[C@@H]2N1C(=O)NCc1ccccc1` [compound 3], 5.33 µM.
Turning to `C=CCN1CC(=O)N2[C@@H](Cc3ccc(O)cc3)C(=O)N(Cc3cccc4c(C(C)=O)c[nH]c34)C[C@@H]2N1C(=O)NCc1ccccc1` [compound 60], the IC50 in assay [1] (setting [2]) was 4.84 µM.
With `C=CCN1CC(=O)N2[C@@H](Cc3ccc(O)cc3)C(=O)N(Cc3cccc4c3ncn4CC#N)C[C@@H]2N1C(=O)NCc1ccccc1` [compound 4], in assay [1] (setting [2]), the IC50 stood at 5.4 µM.
Regarding `C=CCN1CC(=O)N2C(CN(Cc3ccccc3S(C)(=O)=O)C(=O)[C@@H]2Cc2ccc(O)cc2)N1C(=O)NCc1ccccc1` (stereo partly shown) [compound 30], the IC50 in assay [1] (setting [2]) was determined as 18.7 µM.
The same measure, in the same setting: the result for `C=CCN1CC(=O)N2[C@@H](Cc3ccc(O)cc3)C(=O)N(Cc3cccc(C#N)c3)C[C@@H]2N1C(=O)NCc1ccccc1` [compound 19] reads 9.65 µM.
As for `C=CCN1CC(=O)N2[C@@H](Cc3ccc(O)cc3)C(=O)N(Cc3cccc(C(=O)NCCO)c3)C[C@@H]2N1C(=O)NCc1ccccc1` [compound 42], the IC50 in assay [1] (setting [2]) was 44.1 µM.
With `C=CCN1CC(=O)N2[C@@H](Cc3ccc(O)cc3)C(=O)N(Cc3cccc(C(N)=O)c3)C[C@@H]2N1C(=O)NCc1ccccc1` [compound 207], the IC50 with Wnt signaling (setting [4]) turned out to be 3.25 ± 0.41 µM.
As to `C=CCN1CC(=O)N2[C@@H](Cc3ccc(O)cc3)C(=O)N(Cc3csc4ccc(N(Cc5ccccc5)Cc5ccccc5)cc34)C[C@@H]2N1C(=O)NCc1ccccc1` [compound 200], the IC50 with Wnt signaling (setting [4]) amounted to 25.9 ± 4.72 µM.
Take `C=CCN1CC(=O)N2[C@@H](Cc3ccc(O)cc3)C(=O)N(Cc3csc4c(NC(C)=O)cccc34)C[C@@H]2N1C(=O)NCc1ccccc1` [compound 250]: the IC50 in the assay on Wnt signaling (setting [4]) is 6.98 ± 1.45 µM.
On the same count and under the same terms, the result for `C=CCN1CC(=O)N2[C@@H](Cc3ccc(O)cc3)C(=O)N(Cc3cccc(-c4cccc(N)c4)c3)C[C@@H]2N1C(=O)NCc1ccccc1` [compound 82] reads 0.99 ± 0.14 µM.
Take `C=CCN1CC(=O)N2[C@@H](Cc3ccc(O)cc3)C(=O)N(Cc3cccc(-c4nccs4)c3)C[C@@H]2N1C(=O)NCc1ccccc1` [compound 133]: in the assay on Wnt signaling (setting [5]), the IC50 was 1.73 ± 0.22 µM.
With `C=CCN1CC(=O)N2[C@@H](Cc3ccc(O)cc3)C(=O)N(Cc3csc4cc(NC(=O)NC)ccc34)C[C@@H]2N1C(=O)NCc1ccccc1` [compound 157], the IC50 in the assay on Wnt signaling (setting [5]) was found to be 12.4 ± 2.36 µM.
For the compound `C=CCN1CC(=O)N2[C@@H](Cc3ccc(O)cc3)C(=O)N(Cc3cccc(C(=O)NCCCOCCCC)c3)C[C@@H]2N1C(=O)NCc1ccccc1` [compound 135], in the assay with Wnt signaling (setting [4]), the IC50 was 1.77 ± 0.15 µM.
Still for that read-out and setting: the result for `C=CCN1CC(=O)N2[C@@H](Cc3ccc(O)cc3)C(=O)N(Cc3cccc4c(-c5ccccc5)c[nH]c34)C[C@@H]2N1C(=O)NCc1ccccc1` [compound 10] reads 0.3 ± 0.06 µM.
Still for that read-out and setting: the result for `C=CCN1CC(=O)N2[C@@H](Cc3ccc(O)cc3)C(=O)N(Cc3ccc(F)c4scnc34)C[C@@H]2N1C(=O)NCC1CCCCC1` [compound 238] reads 49.8 ± 4.8 µM; that for `C=CCN1CC(=O)N2[C@@H](Cc3ccc(O)cc3)C(=O)N(Cc3ccnc(-c4ccccc4)n3)C[C@@H]2N1C(=O)NCc1ccccc1` [compound 176], 2.37 ± 0.22 µM.
Still for that read-out and setting: the result for `C=CCN1CC(=O)N2[C@@H](Cc3ccc(O)cc3)C(=O)N(Cc3ccc(OC)c(F)c3)C[C@@H]2N1C(=O)NCc1ccccc1` [compound 193] reads 2.86 ± 0.49 µM.
`C=CCN1CC(=O)N2[C@@H](Cc3ccc(O)cc3)C(=O)N(Cc3cccc(C(=O)NCCOC)c3)C[C@@H]2N1C(=O)NCc1ccccc1` [compound 91]: the IC50 with Wnt signaling (setting [4]) worked out at 1.04 ± 0.18 µM.
Still for that read-out and setting: the result for `C=CCN1CC(=O)N2[C@@H](Cc3ccc(O)cc3)C(=O)N(Cc3cccc4c3nc(C(F)(F)F)n4C)C[C@@H]2N1C(=O)NCc1ccccc1` [compound 93] reads 1.07 ± 0.2 µM.
As for `C=CCN1CC(=O)N2[C@@H](Cc3ccc(OP(=O)(O)O)cc3)C(=O)N(Cc3cccc4c(-c5ccccc5)c[nH]c34)C[C@@H]2N1C(=O)NCc1ccccc1` [compound 22], in the assay with Wnt signaling (Homo sapiens, SW480), the IC50 stood at 0.45 ± 0.29 µM.
For the compound `C=CCN1CC(=O)N2[C@@H](Cc3ccc(O)cc3)C(=O)N(Cc3csc4cc(NC(=O)OC)ccc34)C[C@@H]2N1C(=O)NCc1ccccc1` [compound 45], the IC50 in the assay with Wnt signaling (setting [4]) was determined as 0.67 ± 0.09 µM.
Same read-out and setting: to `C#Cc1ccc(CNC(=O)N2[C@H]3CN(Cc4cccc(OC)c4OC)C(=O)[C@H](Cc4ccc(O)cc4)N3C(=O)CN2CC=C)cc1` [compound 184] belongs 2.56 ± 0.29 µM; to `C=CCN1CC(=O)N2[C@@H](Cc3ccc4[nH]ncc4c3)C(=O)N(Cc3cccc4scnc34)C[C@@H]2N1C(=O)NCc1ccccc1` (racemic) [compound 237], 46.7 ± 6.13 µM.
`C=CCOc1ccc(CN2C[C@H]3N(C(=O)CN(CC=C)N3C(=O)NCc3ccccc3)[C@@H](Cc3ccc(OP(=O)(O)O)cc3)C2=O)cc1` [compound 136]: in the assay on Wnt signaling (Homo sapiens, SW480), the IC50 came to 1.83 ± 0.32 µM.
In the case of `C=CCN1CC(=O)N2[C@@H](Cc3ccc(O)cc3)C(=O)N(Cc3cc4c(cc3[N+](=O)[O-])OCO4)C[C@@H]2N1C(=O)NCc1ccccc1` [compound 244], the IC50 in the assay with Wnt signaling (setting [4]) amounted to 5.98 ± 1.03 µM.
Same read-out and setting: the result for `C=CCN1CC(=O)N2[C@@H](Cc3ccc(O)cc3)C(=O)N(Cc3cccc(C(=O)NCc4ccccc4)c3)C[C@@H]2N1C(=O)NCc1ccccc1` [compound 56] reads 0.74 ± 1.46 µM.
With `C=CCN1CC(=O)N2[C@@H](Cc3ccc(O)c(Br)c3)C(=O)N(Cc3cccc4scnc34)C[C@@H]2N1C(=O)NCc1ccccc1` [compound 235], the IC50 in the assay on Wnt signaling (setting [4]) turned out to be 40.7 ± 6.4 µM.
The same measure, in the same setting: to `C=CCN1CC(=O)N2[C@@H](Cc3ccc(O)cc3)C(=O)N(Cc3cccc(-c4cccc(C#N)c4)c3)C[C@@H]2N1C(=O)NCc1ccccc1` [compound 126] belongs 1.58 ± 0.27 µM.
On to `C=CCN1CC(=O)N2[C@@H](Cc3ccc(O)cc3)C(=O)N(Cc3ccc(F)c4scnc34)C[C@@H]2N1C(=O)NCc1cccs1` [compound 171], for which, in the assay on Wnt signaling (setting [5]), the IC50 was 2.1 ± 0.34 µM.
Take `C=CCN1CC(=O)N2[C@@H](Cc3ccc(O)cc3)C(=O)N(Cc3cccc(C(=O)O)c3)C[C@@H]2N1C(=O)NCc1ccc(Cl)cc1Cl` [compound 119]: the IC50 in the assay on Wnt signaling (setting [4]) stood at 1.51 ± 0.16 µM.
On to `C=CCN1CC(=O)N2[C@@H](Cc3ccc(O)cc3)C(=O)N(Cc3ccccc3S(C)(=O)=O)C[C@@H]2N1C(=O)NCc1ccccc1` [compound 188], for which the IC50 in the assay with Wnt signaling (setting [4]) is 2.67 ± 0.59 µM.
On to `C=CCN1CC(=O)N2[C@@H](Cc3ccc(O)cc3)C(=O)N(Cc3cccc(C4CC4)n3)C[C@@H]2N1C(=O)NCc1ccccc1` [compound 95], for which the IC50 in the assay with Wnt signaling (setting [4]) is 1.1 ± 0.12 µM.
Still for that read-out and setting: to `C=CCN1CC(=O)N2[C@@H](Cc3ccc(O)cc3)C(=O)N(Cc3cccc(Cl)c3N(C)C)C[C@@H]2N1C(=O)NCc1ccccc1` [compound 122] belongs 1.54 ± 0.07 µM.
Regarding `C=CCCNC(=O)c1cccc(CN2C[C@H]3N(C(=O)CN(CC=C)N3C(=O)NCc3ccccc3)[C@@H](Cc3ccc(O)cc3)C2=O)c1` [compound 76], in the assay on Wnt signaling (setting [4]), the IC50 was 0.94 ± 0.04 µM.
Still for that read-out and setting: the result for `C=CCN1CC(=O)N2[C@@H](Cc3ccc(O)cc3)C(=O)N(Cc3csc4cc(NCCC)ccc34)C[C@@H]2N1C(=O)NCc1ccccc1` [compound 66] reads 0.84 ± 0.09 µM.
On the same count and under the same terms, to `C=CCN1CC(=O)N2[C@@H](Cc3ccc(O)cc3)C(=O)N(Cc3ccc(F)c4scnc34)C[C@@H]2N1C(=O)NCc1ccc(C)cc1` [compound 103] belongs 1.26 ± 0.19 µM; to `C=CCN1CC(=O)N2[C@@H](Cc3ccc(O)cc3)C(=O)N(Cc3ccc(OCCC)cc3)C[C@@H]2N1C(=O)NCc1ccccc1` [compound 247], 6.66 ± 0.88 µM.
